Results: ChEMBL document CHEMBL5634089, “Design, synthesis and evaluation of 2-pyrimidinylindole derivatives as anti-obesity agents by regulating lipid metabolism” (Eur J Med Chem, 2023)
In brackets after ≈: the same amount, converted by molar mass. Activity calls are given as the source filed them. No cut-off for these calls is given here.

Key:
3T3-L1 [1] = experiment: Anti-adipogenic activity against mouse 3T3-L1 cells assessed as increase in Mcad mRNA expression at 0.2 to 0.8 uM incubated for 3 days by RT-PCR analysis; assay type: functional, cell-based; details: dose 0.2-0.8 µM, time 3.0 day
Mus musculus [2] = experiment: Inhibition of lipid synthesis in high-fat and high-cholesterol diet induced C57BL/6J mouse assessed as downregulation of ACC protein expression at 20 mg/kg, ip administered for 6 weeks by Western blotting analysis; assay type: functional, organism-based
[3] = Therapeutic index, ratio of IC50 for cytotoxicity against mouse 3T3-L1 cells to EC50 for anti-adipogenic in mouse 3T3-L1 cells; assay type: toxicity, cell-based; details: read-out: Ratio IC50/EC50
Mus musculus [4] = experiment: Anti-obesity activity in high-fat and high-cholesterol diet induced C57BL/6J mouse assessed as attenuation of inflammation in liver at 20 mg/kg, ip administered everyday for 6 weeks by hematoxylin and eosin staining based microscopic analysis; assay type: functional, organism-based
[5] = Half life in Sprague-Dawley rat at 2 mg/kg, iv administered for 24 hrs by LC-MS/MS analysis; assay type: ADME, organism-based; details: in vivo
[6] = Cmax in Sprague-Dawley rat at 20 mg/kg, po administered for 24 hrs by LC-MS/MS analysis; assay type: ADME, organism-based; details: in vivo
Mus musculus [7] = experiment: Anti-obesity activity in high-fat and high-cholesterol diet induced C57BL/6J mouse assessed as attenuation of insulin resistance at 20 mg/kg, ip measured after 5 weeks by ITT analysis; assay type: functional, organism-based
Mus musculus [8] = experiment: Anti-obesity activity in high-fat and high-cholesterol diet induced C57BL/6J mouse assessed as reduction in serum glucose level at 20 mg/kg, ip measured after 3 weeks by GTT analysis; assay type: functional, organism-based
[9] = AUC (0 to infinity) in Sprague-Dawley rat at 2 mg/kg, iv administered for 24 hrs by LC-MS/MS analysis; assay type: ADME, organism-based; details: in vivo
[10] = Apparent oral clearance in Sprague-Dawley rat at 20 mg/kg, po administered for 24 hrs by LC-MS/MS analysis; assay type: ADME, organism-based; details: in vivo
3T3-L1 [11] = experiment: Anti-adipogenic activity in mouse 3T3-L1 cells assessed as lipid-lowering activity at 1 uM measured after 9 days by Oil Red O staining based microplate reader analysis relative to control; assay type: functional; details: time 9 day
Mus musculus [12] = experiment: Inhibition of lipid synthesis in high-fat and high-cholesterol diet induced C57BL/6J mouse assessed as downregulation of ACLY protein expression at 20 mg/kg, ip administered for 6 weeks by Western blotting analysis; assay type: functional, organism-based
[13] = MRT (0 to t) in Sprague-Dawley rat at 20 mg/kg, po administered for 24 hrs by LC-MS/MS analysis; assay type: ADME, organism-based; details: in vivo
Mus musculus [14] = experiment: Inhibition of lipid synthesis in high-fat and high-cholesterol diet induced C57BL/6J mouse assessed as downregulation of FABP4 protein expression at 20 mg/kg, ip administered for 6 weeks by Western blotting analysis; assay type: functional, organism-based
[15] = Aqueous solubility of compound incubated for 24 hrs by HPLC analysis; assay type: physicochemical; details: aqueous medium
Mus musculus [16] = experiment: Anti-obesity activity in high-fat and high-cholesterol diet induced C57BL/6J mouse assessed as reduction in LDL-c level at 20 mg/kg, ip administered every day for 6 weeks; assay type: functional, organism-based
[17] = AUC (0 to infinity) in Sprague-Dawley rat at 20 mg/kg, po administered for 24 hrs by LC-MS/MS analysis; assay type: ADME, organism-based; details: in vivo
[18] = Oral bioavailability (0 to t) in Sprague-Dawley rat at 20 mg/kg administered for 24 hrs by LC-MS/MS analysis; assay type: ADME, organism-based; details: in vivo
3T3-L1 [19] = experiment: Anti-adipogenic activity against mouse 3T3-L1 cells assessed as decrease in Fasn mRNA expression at 0.2 to 0.8 uM incubated for 3 days by RT-PCR analysis; assay type: functional, cell-based; details: dose 0.2-0.8 µM, time 3.0 day
Mus musculus [20] = experiment: Anti-obesity activity in high-fat and high-cholesterol diet induced C57BL/6J mouse assessed as reduction in total cholesterol level at 20 mg/kg, ip administered every day for 6 weeks; assay type: functional, organism-based
[21] = Tmax in Sprague-Dawley rat at 20 mg/kg, po administered for 24 hrs by LC-MS/MS analysis; assay type: ADME, organism-based; details: in vivo
[22] = Oral bioavailability (0 to infinity) in Sprague-Dawley rat at 20 mg/kg administered for 24 hrs by LC-MS/MS analysis; assay type: ADME, organism-based; details: in vivo
Mus musculus [23] = experiment: Anti-obesity activity in high-fat and high-cholesterol diet induced C57BL/6J mouse assessed as reduction in liver damage by measuring reduction in LDH level in serum at 20 mg/kg, ip administered every day for 6 weeks; assay type: functional, organism-based
3T3-L1 [24] = experiment: Anti-adipogenic activity against mouse 3T3-L1 cells assessed as increase in Cpt1 alpha mRNA expression at 0.2 to 0.8 uM incubated for 3 days by RT-PCR analysis; assay type: functional, cell-based; details: dose 0.2-0.8 µM, time 3.0 day
3T3-L1 [25] = experiment: Anti-adipogenic activity against mouse 3T3-L1 cells assessed as decrease in PPAR gamma mRNA expression at 0.2 to 0.8 uM incubated for 3 days by RT-PCR analysis; assay type: functional, cell-based; details: dose 0.2-0.8 µM, time 3.0 day
3T3-L1 [26] = experiment: Anti-adipogenic activity against mouse 3T3-L1 cells assessed as decrease in Acc mRNA expression at 0.2 to 0.8 uM incubated for 3 days by RT-PCR analysis; assay type: functional, cell-based; details: dose 0.2-0.8 µM, time 3.0 day
Mus musculus [27] = experiment: Anti-obesity activity in high-fat and high-cholesterol diet induced C57BL/6J mouse assessed as improvement in glucose tolerance at 20 mg/kg, ip measured after 3 weeks by GTT analysis; assay type: functional, organism-based
Mus musculus [28] = experiment: Anti-obesity activity in high-fat and high-cholesterol diet induced C57BL/6J mouse assessed as reduction in liver damage by measuring reduction in alanine aminotransferase level in serum at 20 mg/kg, ip administered every day for 6 weeks; assay type: functional, organism-based
3T3-L1 [29] = experiment: Anti-adipogenic activity against mouse 3T3-L1 cells assessed as decrease in C/EBP alpha mRNA expression at 0.2 to 0.8 uM incubated for 3 days by RT-PCR analysis; assay type: functional, cell-based; details: dose 0.2-0.8 µM, time 3.0 day
Mus musculus [30] = experiment: Anti-obesity activity in high-fat and high-cholesterol diet induced C57BL/6J mouse assessed as reduction in fat mass at 20 mg/kg, ip administered every day for 6 weeks; assay type: functional, organism-based
3T3-L1 [31] = experiment: Anti-adipogenic activity in mouse 3T3-L1 cells assessed as lipid-lowering activity during the adipogenesis stage at 0.2 to 1.0 uM measured after 0 to 3 days; assay type: functional, cell-based; details: dose 0.2-1 µM, time 0-3 day
Mus musculus [32] = experiment: Inhibition of lipid synthesis in high-fat and high-cholesterol diet induced C57BL/6J mouse assessed as downregulation of FASN protein expression at 20 mg/kg, ip administered for 6 weeks by Western blotting analysis; assay type: functional, organism-based
Mus musculus [33] = experiment: Anti-obesity activity in high-fat and high-cholesterol diet induced C57BL/6J mouse assessed as reduction in liver damage by measuring reduction in cholinesterase level in serum at 20 mg/kg, ip administered every day for 6 weeks; assay type: functional, organism-based
[34] = Half life in Sprague-Dawley rat at 20 mg/kg, po administered for 24 hrs by LC-MS/MS analysis; assay type: ADME, organism-based; details: in vivo
Adipocyte = experiment: Anti-adipogenic activity against mouse […] Adipocytes assessed as lipid-lowering activity by Oil Red O staining based microplate reader analysis; assay type: functional, cell-based
3T3-L1 [35] = experiment: Anti-adipogenic activity in mouse 3T3-L1 cells assessed as lipid-lowering activity measured after 9 days by Oil Red O staining based microplate reader analysis; assay type: functional, cell-based; details: 3T3-L1, 216 h
Mus musculus [36] = experiment: Anti-obesity activity in high-fat and high-cholesterol diet induced C57BL/6J mouse assessed as attenuation of fibrosis in liver at 20 mg/kg, ip administered every day for 6 weeks by Sirius red staining based microscopic analysis; assay type: functional, organism-based

CC(=O)c1c(-c2nccc(NCCN3CCCC3)n2)[nH]c2ccccc12
Activity (3T3-L1 [1]): Active | inhibition (Mus musculus [2]): Active | selectivity ratio [3]: 255 | Activity (Mus musculus [4]): Active | half-life [5]: 1.9 h | Cmax [6]: 168 ng/mL | Activity (Mus musculus [7]): Active | Activity (Mus musculus [8]): Active | AUC(0-inf) [9]: 225 ng·h/mL | CL/F [10]: 255 mL/min/kg | Activity (3T3-L1 [11]): 100.7% | inhibition (Mus musculus [12]): Active | MRT last at 24 h [13]: 5.2 h | inhibition (Mus musculus [14]): Active | solubility at 24 h [15]: 161 µg/mL (≈ 461 µM) | Activity (Mus musculus [16]): Active | AUC(0-inf) [17]: 1470 ng·h/mL | bioavailability [18]: 63% | Activity (3T3-L1 [19]): Active | Activity (Mus musculus [20]): Active | Tmax [21]: 2.8 h | bioavailability [22]: 65.5% | Activity (Mus musculus [23]): Active | Activity (3T3-L1 [24]): Active | Activity (3T3-L1 [25]): Active | Activity (3T3-L1 [26]): Active | Activity (Mus musculus [27]): Active | Activity (Mus musculus [28]): Active | Activity (3T3-L1 [29]): Active | Activity (Mus musculus [30]): Active | Activity (3T3-L1 [31]): Active | inhibition (Mus musculus [32]): Active | Activity (Mus musculus [33]): Active | half-life [34]: 2.9 h | EC50 (Adipocyte): 289 nM | EC50 (3T3-L1 [35]): 106 nM | Activity (Mus musculus [36]): Active
